Laboratory results as given in article PMC12597552 (Drug metabolism and disposition: the biological fate of …, 2025).
Like-named read-outs stand apart in the source and are kept apart here.

Legend:
[1] = set by similarity to Δ9-THC; cited from earlier work
[2] = cited from earlier work
[3] = molecular target: T1, CYP2C9 (Homo sapiens, UniProt P11712); test: IC50 shift assay in recombinant CYP2C9 microsomes; format: in vitro ADME; set-up: made in house; settings: recombinant CYP2C9-overexpressing microsomes, probe diclofenac (4′-hydroxylation), 4′-hydroxylation of diclofenac, rec CYP2C9, 30-min preincubation minus vs plus NADPH, mean ± SD
T1 sequence (P11712 whole entry): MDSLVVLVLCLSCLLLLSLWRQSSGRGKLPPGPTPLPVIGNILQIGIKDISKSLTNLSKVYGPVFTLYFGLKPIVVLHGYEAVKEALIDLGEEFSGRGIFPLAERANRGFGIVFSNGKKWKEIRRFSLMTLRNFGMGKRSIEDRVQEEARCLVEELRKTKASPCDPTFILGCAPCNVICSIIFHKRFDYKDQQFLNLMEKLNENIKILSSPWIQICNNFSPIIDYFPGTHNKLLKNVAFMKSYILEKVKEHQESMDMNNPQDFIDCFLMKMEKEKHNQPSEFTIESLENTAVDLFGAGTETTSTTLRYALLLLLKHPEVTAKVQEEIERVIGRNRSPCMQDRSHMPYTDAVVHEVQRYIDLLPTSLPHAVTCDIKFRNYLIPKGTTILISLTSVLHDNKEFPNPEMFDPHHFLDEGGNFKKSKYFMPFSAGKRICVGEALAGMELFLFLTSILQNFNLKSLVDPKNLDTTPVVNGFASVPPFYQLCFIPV
Method: (§1) To characterize inhibition type, IC50 shift studies were performed using recombinant P450-overexpressing microsomes. Assays were preincubated at 37°C for 30 minutes with cannabinoid with or without NADPH in the absence of a probe substrate. After preincubation, substrate was added and incubated for 30 minutes. IC50 values were calculated as mentioned above using GraphPad Prism 10.0.
(§2) IC50shift=IC50with30-minpreincubationminusNADPH/IC50with30-minpreincubationplusNADPH

[4] = tested on: CB2 receptors; set-up: method as in PMID 10633038; settings: partial agonist; cited from earlier work
[5] = molecular target: T2, CYP3A4 (Homo sapiens, UniProt P08684); test: Inhibition of CYP3A4 activity in pooled human liver microsomes (midazolam probe); format: in vitro ADME; set-up: made in house; host or cells: HEK293 cells (microsomal fraction)
T2 sequence (P08684 whole entry): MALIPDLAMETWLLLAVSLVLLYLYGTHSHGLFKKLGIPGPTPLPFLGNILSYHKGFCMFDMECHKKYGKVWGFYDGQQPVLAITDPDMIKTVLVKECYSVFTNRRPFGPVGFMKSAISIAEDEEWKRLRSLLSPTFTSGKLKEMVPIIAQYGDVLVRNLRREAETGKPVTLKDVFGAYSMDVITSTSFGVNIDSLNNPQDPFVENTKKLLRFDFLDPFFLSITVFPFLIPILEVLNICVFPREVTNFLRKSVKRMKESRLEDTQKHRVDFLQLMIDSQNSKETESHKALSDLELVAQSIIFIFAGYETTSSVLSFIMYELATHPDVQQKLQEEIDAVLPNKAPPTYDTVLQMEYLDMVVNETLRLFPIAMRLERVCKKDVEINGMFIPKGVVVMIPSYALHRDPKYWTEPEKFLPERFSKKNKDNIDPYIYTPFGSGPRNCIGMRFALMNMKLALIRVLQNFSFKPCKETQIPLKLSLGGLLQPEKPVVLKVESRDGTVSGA
Description: V5-tagged human P450 enzymes (CYPs 1A2, 2B6, 2C8, 2C9, 2C19, 2D6, 2E1, and 3A4) were cloned and overexpressed in HEK293 cells and microsomal fractions were isolated by differential centrifugation as previously described,[19] with expression monitored by western blot analysis. An anti-V5-tagged antibody (1:1000) and an anti-calnexin polyclonal rabbit antibody (1:1000) together with an anti-rabbit IgG, HRP-linked antibody (1:5000) were used to probe V5 and calnexin, respectively (Supplemental Fig. 1). Briefly, microsomes (25 μg) were electrophoresed on a 10% SDS–polyacrylamide gel and proteins were transferred to polyvinylidene difluoride membranes using a iBlot Gel Transfer Stacks polyvinylidene difluoride, Regular kit (Catalog No. IB401001). […] Calnexin bands served as the loading control for microsomal protein samples, whereas V5-HRP bands indicated the expression of each P450 enzyme, which was not detected in microsomes from parental HEK293 cells. Microsomal protein quantified using the BCA protein assay following the manufacturer’s instructions. […]
Metabolites were quantified using a Waters Acquity UPLC system coupled to a Xevo TQD triple-quadrupole mass spectrometer (Waters). […]
The percent activity for a given reaction was calculated by comparing metabolite formation between inhibitor-treated incubations and vehicle controls, as detailed below. […]

[6] = molecular target: T2, CYP3A4; test: Inhibition of recombinant CYP3A4-overexpressing microsomes (midazolam probe); format: in vitro ADME; set-up: made in house; host or cells: HEK293 cells (microsomal fraction)
[7] = tested on: CYP2C9 and CYP3A4; test: IC50,u / Ki,u summarised across all CYP2C9 and CYP3A4 enzyme-substrate pairs; format: in vitro ADME; settings: human, pH 7.4; both recombinant enzyme microsomes and HLM; read-out: IC50,u against CYPs 2C9 and 3A4
Method: Reactions were preincubated at 37°C for 3 minutes before initiating with an NADPH-regenerating system. Incubation times were 5 – 30 minutes for recombinant P450 microsomes (Supplemental Table 1) and 10 minutes for HLM. […] Approximately 30 μL of the supernatant was transferred to an ultraperformance liquid chromatography (UPLC) vial for analysis. To reduce nonspecific binding of cannabinoids, all incubations were performed using low-binding 0.6-mL tubes. Probe substrates were used at concentrations near their Michaelis-Menten constants ( Km ) to minimize off-target interactions.[13],[20]–[25]
Initial screening studies were performed using recombinant P450-overexpressing microsomes and 1 or 10 μM cannabinoid concentrations and validated using HLM. […] All determinations were performed in triplicate for reproducibility.
To determine Ki values for each P450 enzyme, substrate and inhibitor concentrations were selected based on known Km and IC50 values. […] Internal standards (deuterated metabolites) were used to normalize metabolite peak areas. Lineweaver–Burk plots ( 1/v vs 1/S ) were used to characterize inhibition type. […] Reaction velocity ( v ) refers to the rate of metabolite formation, calculated by dividing the metabolite peak area by the internal standard peak area for a given reaction. […]

[8] = molecular target: T1, CYP2C9; test: Initial inhibition screen at 1 or 10 μM, CYP2C9 (recombinant microsomes and HLM); format: in vitro ADME; set-up: made in house; host or cells: HEK293 cells (microsomal fraction); settings: 10 μM cannabinoid; recombinant P450-overexpressing microsomes as well as HLM
[9] = tested on: CYPs 1A2, 2B6, 2C8, 2C9, 2C19, 2D6, 2E1, and 3A4; test: Initial inhibition screen at 1 or 10 μM, panel of major hepatic P450 enzymes; format: in vitro ADME, human; settings: enzymes other than CYPs 2C9 and 3A4
[10] = molecular target: T2, CYP3A4; test: Initial inhibition screen at 1 or 10 μM, CYP3A4 (recombinant microsomes and HLM); format: in vitro ADME; set-up: made in house; host or cells: HEK293 cells (microsomal fraction)
[11] = molecular target: T2, CYP3A4; test: IC50 shift assay in recombinant CYP3A4 microsomes; format: in vitro ADME; set-up: made in house; settings: recombinant CYP3A4-overexpressing microsomes, probe midazolam (1′-hydroxylation), 1′-hydroxylation of midazolam, rec CYP3A4, 30-min preincubation minus vs plus NADPH, mean ± SD
Method: as §1, §2

[12] = tested on: CB1 receptors; set-up: method as in PMID 10633038; settings: partial agonist; cited from earlier work
[13] = molecular target: T1, CYP2C9; test: Inhibition of CYP2C9 activity in pooled human liver microsomes (diclofenac and warfarin probes); format: in vitro ADME; set-up: made in house; host or cells: HEK293 cells (microsomal fraction); settings: HLM, unbound, adjusted with fu,inc, mean ± SD; for IC50: IC50,u; for Ki: Ki,u
[14] = molecular target: T1, CYP2C9; test: Inhibition of recombinant CYP2C9-overexpressing microsomes (diclofenac and warfarin probes); format: in vitro ADME; set-up: made in house; host or cells: HEK293 cells (microsomal fraction); settings: for inhibition mechanism (Lineweaver–Burk): recombinant P450 microsomes and HLM, consistent profiles; for IC50: IC50,u, rec CYP2C9 microsomes; for IC50 / Ki: unbound, mean ± SD; for Ki: Ki,u, rec CYP2C9

In the case of `CCCCCc1cc(O)c2c(c1)OC(C)(C)C1CC=C(C)CC21` (centres unmarked) [Δ8-THC, Δ8-Tetrahydrocannabinol], the “fu,p (unbound fraction of drug in plasma)” value [1] is listed as 0.03, the Cmax ([2]; oral Δ8-THC dose 10 mg) is listed as 7.9 nM and the Cmax ([2]; oral Δ8-THC dose 20 mg) is listed as 17.8 nM. The Cmax ([2]; oral Δ8-THC dose 40 mg) was 48 nM, the IC50 shift at 30 min [3] was 1.24 ± 0.34 and the “potency relative to Δ9-THC” value [4] was “approximately half”. It also gave an IC50 [5] of 480 ± 110 nM, a Ki [5] of 520 ± 20 nM and an IC50 [6] of 440 ± 140 nM. For the same molecule, the Ki [6] was 860 ± 280 nM, the “Inhibition Type” value ([6]; 1′-hydroxylation of midazolam, cell merged over rec CYP3A4 and HLM) was “N” and the “inhibition mechanism (Lineweaver–Burk)” value ([6]; CYP3A4-mediated midazolam metabolism, recombinant P450 microsomes and HLM, consistent profiles) was “noncompetitive inhibition”. For the same molecule, the IC50 [7] was less than 500 nM, the “reduction of 4′-hydroxydiclofenac formation” value [8] was greater than 40% and the “reduction of 7′-hydroxywarfarin formation” value [8] was greater than 40%. The “inhibition of other major hepatic P450 enzymes tested” value [9] was “Minimal or no inhibition”, the “reduction of 1′-hydroxymidazolam formation” value ([10]; 10 μM cannabinoid, recombinant P450-overexpressing microsomes as well as HLM) was greater than 40% and the “inhibition of CYP3A4 with testosterone as substrate” value ([10]; substrate-specific: midazolam vs testosterone) was “inhibition observed for midazolam but not testosterone”. The IC50 shift at 30 min [11] was 0.85 ± 0.09, the “potency relative to Δ9-THC” value [12] was “approximately half” and the IC50 ([13]; diclofenac -> 4′-hydroxydiclofenac) was 230 ± 30 nM. It also gave an IC50 ([13]; warfarin -> 7′-hydroxywarfarin) of 440 ± 140 nM, a Ki ([13]; 4′-hydroxylation of diclofenac) of 320 ± 60 nM and a Ki ([13]; 7′-hydroxylation of warfarin) of 230 ± 90 nM. The “Inhibition Type” value ([14]; 4′-hydroxylation of diclofenac, cell merged over rec CYP2C9 and HLM) was “N”, the “inhibition mechanism (Lineweaver–Burk)” value ([14]; CYP2C9-mediated diclofenac metabolism) was “noncompetitive inhibition” and the “inhibition mechanism (Lineweaver–Burk)” value ([14]; CYP2C9-mediated warfarin metabolism) was “competitive inhibition”. It also gave an IC50 ([14]; diclofenac -> 4′-hydroxydiclofenac, adjusted with fu,inc of Δ9-THC / 11-OH-Δ9-THC, 3 experiments) of 70 ± 10 nM, an IC50 ([14]; warfarin -> 7′-hydroxywarfarin, adjusted with fu,inc) of 200 ± 30 nM and a Ki ([14]; 4′-hydroxylation of diclofenac, adjusted with fu,inc) of 260 ± 10 nM. The Ki ([14]; 7′-hydroxylation of warfarin, adjusted with fu,inc) was 90 ± 40 nM and the Ki ([14]; human, recombinant CYP2C9-overexpressing HEK293 microsomes, pH 7.4, probe warfarin (7′-hydroxylation), 7′-hydroxylation of warfarin, adjusted with fu,inc) was 160 ± 40 nM.
